Tested on: IRF3 activation in THP-1 Dual Cells
Test: IRF3 activation assay in THP-1 Dual Cells (QUANTI-Blue readout)
Format: cell-based
Conditions: Homo sapiens, THP1-Dual, 24 h
Procedure: THP-1 Dual Cells (Invivogen) were maintained in RPMI1640 medium with addition of 10% FBS, 100 μg/ml zeocin, 10 μg/ml blasticidin. Cells were added in a 96-well flat bottom assay plate at 100,000 per well in 100 μL complete RPMI medium. Test compounds were prepared by serial dilution in complete RPMI medium and 100 μL test compounds were transferred to each corresponding well. The assay plate was incubated at 37° C., 5% CO2 for 24 hours. After the overnight incubation, 20 μL of the culture supernatants were collected, followed by addition of 180 μL of QUANTI-Blue (Invivogen) to assess IRF3 activity. The amount of IRF3 activation was assessed by reading the absorbance at 620-655 nm with a microplate reader 2 hours later. The culture supernatant from the untreated THP-1 cells was used as the negative control. To determine the NF-κB activation, another 20 μL of culture supernatant were transferred to a 96-well white plate, followed by addition of 50 μL of Quanti-Luc™ assay solution (Invivogen). The amount of NF-κB activation induced by the test compounds were determined by the luminescence above the untreated control. EC50 determination was performed by fitting the curve of percent control activity versus the log of the compound concentration using the GraphPad Prism 6.0 software.

| EC50 (Table 2, 24 hours incubation) | EC50 (Table 1, 24 hours incubation) | Compound |
| --- | --- | --- |
| 50 to 200 nM | – | CCn1nc(C)cc1C(=O)Nc1nc2cc(C(N)=O)cc(OCCCNC(=O)[C@@H](N)CC(=O)O)c2n1C/C=C/Cn1c2nc(-c3cc(C)nn3CC)ncc2c2cc(C(N)=O)cc(OCCCOC)c21 [Example 42, (S,E)-3-amino-4-((3-((5-carbamoyl-1-(4-(6-carbamoyl-2-(1-ethyl-3-methyl-1H-pyrazol-5-yl)-8-(3-methoxypropoxy)-9H-pyrimido[4,5-b]indol-9-yl)but-2-en-1-yl)-2-(1-ethyl-3-methyl-1H-pyrazole-5-carboxamido)-1H-benzo[d]imidazol-7-yl)oxy)propyl)amino)-4-oxobutanoic Acid] |
| < 50 nM | < 200 nM | CCCn1nc(C)cc1-c1ncc2c3cc(C(N)=O)ccc3n(C/C=C/Cn3c(NC(=O)c4cc(C)nn4CC)nc4cc(C(N)=O)cc(C)c43)c2n1 [Example 6, (E)-9-(4-(5-carbamoyl-2-(1-ethyl-3-methyl-1H-pyrazole-5-carboxamido)-7-methyl-1H-benzo[d]imidazol-1-yl)but-2-enyl)-2-(3-methyl-1-propyl-1H-pyrazol-5-yl)-9H-pyrimido[4,5-b]indole-6-carboxamide] |
| < 50 nM | < 200 nM | CCn1nc(C)cc1C(=O)Nc1nc2cc(C(N)=O)cc(C)c2n1C/C=C/Cn1c2nc(-c3cc(C)nn3CC)ccc2c2cc(C(N)=O)cc(OC)c21 [Example 14, (E)-9-(4-(5-carbamoyl-2-(1-ethyl-3-methyl-1H-pyrazole-5-carboxamido)-7-methyl-1H-benzo[d]imidazol-1-yl)but-2-enyl)-2-(1-ethyl-3-methyl-1H-pyrazol-5-yl)-8-methoxy-9H-pyrido[2,3-b]indole-6-carboxamide] |
| 50 to 200 nM | – | CCn1nc(C)cc1C(=O)Nc1nc2cc(C(N)=O)cc(OCCCN3CCN(C)CC3)c2n1C/C=C/Cn1c2nc(-c3cc(C)nn3CC)ncc2c2cc(C(N)=O)cc(OCCCOC)c21 [Example 31, (E)-9-(4-(5-carbamoyl-2-(1-ethyl-3-methyl-1H-pyrazole-5-carboxamido)-7-(3-(4-methylpiperazin-1-yl)propoxy)-1H-benzo[d]imidazol-1-yl)but-2-en-1-yl)-2-(1-ethyl-3-methyl-1H-pyrazol-5-yl)-8-(3-methoxypropoxy)-9H-pyrimido[4,5-b]indole-6-carboxamide] |
| < 50 nM | < 200 nM | CCn1nc(C)cc1C(=O)Nc1nc2cc(C(N)=O)cc(C)c2n1C/C=C/Cn1c2nc(-c3cc(C)nn3CC)ncc2c2cc(C(N)=O)cc(OCCCOC)c21 [Example 12, (E)-9-(4-(5-carbamoyl-2-(1-ethyl-3-methyl-1H-pyrazole-5-carboxamido)-7-methyl-1H-benzo[d]imidazol-1-yl)but-2-enyl)-2-(1-ethyl-3-methyl-1H-pyrazol-5-yl)-8-(3-methoxypropoxy)-9H-pyrimido[4,5-b]indole-6-carboxamide] |
| < 50 nM | – | CCn1nc(C)cc1C(=O)Nc1nc2cc(C(N)=O)cc(OCCCO)c2n1C/C=C/Cn1c2nc(-c3cc(C)nn3CC)ncc2c2cc(C(N)=O)cc(OCCCNC(=O)CCCC(=O)O)c21 [Example 48, (E)-5-(3-(6-carbamoyl-9-(4-(5-carbamoyl-2-(1-ethyl-3-methyl-1H-pyrazole-5-carboxamido)-7-(3-hydroxypropoxy)-1H-benzo[d]imidazol-1-yl)but-2-enyl)-2-(1-ethyl-3-methyl-1H-pyrazol-5-yl)-9H-pyrimido[4,5-b]indol-8-yloxy)propylamino)-5-oxopentanoic Acid] |
| 50 to 200 nM | – | CCn1nc(C)cc1C(=O)Nc1nc2cc(C(N)=O)cc(OCCCNC(=O)CCC(=O)O)c2n1C/C=C/Cn1c2nc(-c3cc(C)nn3CC)ncc2c2cc(C(N)=O)cc(OCCCOC)c21 [Example 59, (E)-4-((3-((5-carbamoyl-1-(4-(6-carbamoyl-2-(1-ethyl-3-methyl-1H-pyrazol-5-yl)-8-(3-methoxypropoxy)-9H-pyrimido[4,5-b]indol-9-yl)but-2-en-1-yl)-2-(1-ethyl-3-methyl-1H-pyrazole-5-carboxamido)-1H-benzo[d]imidazol-7-yl)oxy)propyl)amino)-4-oxobutanoic Acid] |
| < 50 nM | – | CCn1nc(C)cc1C(=O)Nc1nc2cc(C(N)=O)cc(OCCO)c2n1C/C=C/Cn1c2nc(-c3cc(C)nn3CC)ncc2c2cc(C(N)=O)cc(OCCCOC)c21 [Example 36, (E)-9-(4-(5-carbamoyl-2-(1-ethyl-3-methyl-1H-pyrazole-5-carboxamido)-7-(2-hydroxyethoxy)-1H-benzo[d]imidazol-1-yl)but-2-en-1-yl)-2-(1-ethyl-3-methyl-1H-pyrazol-5-yl)-8-(3-methoxypropoxy)-9H-pyrimido[4,5-b]indole-6-carboxamide] |
| < 50 nM | – | CCn1nc(C)cc1C(=O)Nc1nc2cc(C(N)=O)cc(OCCCNC(=O)OCCC(=O)O)c2n1C/C=C/Cn1c2nc(-c3cc(C)nn3CC)ncc2c2cc(C(N)=O)cc(OCCCOC)c21 [Example 39, (E)-3-(((3-((5-carbamoyl-1-(4-(6-carbamoyl-2-(1-ethyl-3-methyl-1H-pyrazol-5-yl)-8-(3-methoxypropoxy)-9H-pyrimido[4,5-b]indol-9-yl)but-2-en-1-yl)-2-(1-ethyl-3-methyl-1H-pyrazole-5-carboxamido)-1H-benzo[d]imidazol-7-yl)oxy)propyl)carbamoyl)oxy)propanoic Acid] |
| < 50 nM | – | CCn1nc(C)cc1C(=O)Nc1nc2cc(C(N)=O)cc(OCCCNS(=O)(=O)CCCC(=O)O)c2n1C/C=C/Cn1c2nc(-c3cc(C)nn3CC)ncc2c2cc(C(N)=O)cc(OCCCOC)c21 [Example 45, (E)-4-(N-(3-((5-carbamoyl-1-(4-(6-carbamoyl-2-(1-ethyl-3-methyl-1H-pyrazol-5-yl)-8-(3-methoxypropoxy)-9H-pyrimido[4,5-b]indol-9-yl)but-2-en-1-yl)-2-(1-ethyl-3-methyl-1H-pyrazole-5-carboxamido)-1H-benzo[d]imidazol-7-yl)oxy)propyl)sulfamoyl)butanoic Acid] |
| < 50 nM | < 200 nM | CCn1nc(C)cc1C(=O)Nc1nc2cc(C(N)=O)cc(OCCCO)c2n1C/C=C/Cn1c2nc(-c3cc(C)nn3CC)ncc2c2cc(C(N)=O)cc(OC)c21 [Example 16, (E)-9-(4-(5-carbamoyl-2-(1-ethyl-3-methyl-1H-pyrazole-5-carboxamido)-7-(3-hydroxypropoxy)-1H-benzo[d]imidazol-1-yl)but-2-en-1-yl)-2-(1-ethyl-3-methyl-1H-pyrazol-5-yl)-8-methoxy-9H-pyrimido[4,5-b]indole-6-carboxamide] |
| < 50 nM | < 200 nM | CCn1nc(C)cc1C(=O)Nc1nc2cc(C(N)=O)cc(O)c2n1C/C=C/Cn1c2nc(-c3cc(C)nn3CC)ncc2c2cc(C(N)=O)cc(OCCCOC)c21 [Example 28, (E)-9-(4-(5-carbamoyl-2-(1-ethyl-3-methyl-1H-pyrazole-5-carboxamido)-7-hydroxy-1H-benzo[d]imidazol-1-yl)but-2-en-1-yl)-2-(1-ethyl-3-methyl-1H-pyrazol-5-yl)-8-(3-methoxypropoxy)-9H-pyrimido[4,5-b]indole-6-carboxamide] |
| 500 to 1000 nM | < 1000 nM | CCn1nc(C)cc1C(=O)Nc1nc2cc(C(N)=O)cc(OC)c2n1C/C=C/Cn1c2ccc(C(N)=O)cc2c2cnc(-c3cc(C)nn3CC)nc21 [Example 4, (E)-9-(4-(5-carbamoyl-2-(1-ethyl-3-methyl-1H-pyrazole-5-carboxamido)-7-methoxy-1H-benzo[d]imidazol-1-yl)but-2-enyl)-2-(1-ethyl-3-methyl-1H-pyrazol-5-yl)-9H-pyrimido[4,5-b]indole-6-carboxamide] |
| < 50 nM | – | CCn1nc(C)cc1C(=O)Nc1nc2cc(C(N)=O)cc(OCCCC#N)c2n1C/C=C/Cn1c2nc(-c3cc(C)nn3CC)ncc2c2cc(C(N)=O)cc(OCCCOC)c21 [Example 29, (E)-9-(4-(5-carbamoyl-7-(3-cyanopropoxy)-2-(1-ethyl-3-methyl-1H-pyrazole-5-carboxamido)-1H-benzo[d]imidazol-1-yl)but-2-en-1-yl)-2-(1-ethyl-3-methyl-1H-pyrazol-5-yl)-8-(3-methoxypropoxy)-9H-pyrimido[4,5-b]indole-6-carboxamide] |
| 50 to 200 nM | – | CCn1nc(C)cc1C(=O)Nc1nc2cc(C(N)=O)cc(OCCCOC)c2n1C/C=C/Cn1c2nc(-c3cc(C)nn3CC)ncc2c2cc(C(N)=O)cc(OCCOCCOCCOCCC(=O)O)c21 [Example 54, (E)-3-(2-(2-(2-(6-carbamoyl-9-(4-(5-carbamoyl-2-(1-ethyl-3-methyl-1H-pyrazole-5-carboxamido)-7-(3-methoxypropoxy)-1H-benzo[d]imidazol-1-yl)but-2-enyl)-2-(1-ethyl-3-methyl-1H-pyrazol-5-yl)-9H-pyrimido[4,5-b]indol-8-yloxy)ethoxy)ethoxy)ethoxy)propanoic Acid] |
| < 50 nM | – | CCn1nc(C)cc1C(=O)Nc1nc2cc(C(N)=O)cc(OC)c2n1C/C=C/Cn1c2nc(-c3cc(C)nn3CC)ncc2c2cc(C(N)=O)cc(OCCCNC(=O)OCCC(=O)O)c21 [Example 47, (E)-3-(3-(6-carbamoyl-9-(4-(5-carbamoyl-2-(1-ethyl-3-methyl-1H-pyrazole-5-carboxamido)-7-methoxy-1H-benzo[d]imidazol-1-yl)but-2-enyl)-2-(1-ethyl-3-methyl-1H-pyrazol-5-yl)-9H-pyrimido[4,5-b]indol-8-yloxy)propylcarbamoyloxy)propanoic Acid] |
